Earlier results in US20230240292A1, “METHOD FOR GROWING PLANTS” (Taminco BV, priority 2020, published 2023).
Read-outs that look alike come from different tables or passages of the source.

Assays:
cauliflower seedlings = settings: seedlings treated with 20 mM BABA

For CC/C=C\C[C@H]1C(=O)CC[C@@H]1CC(=O)O [JA, jasmonic acid], the “Root growth repression (in words)” value (Tomato plants; seedlings treated with as low as 0.25 mM JA) is listed as “root growth repression was observed”.

For CC(N)CC(=O)O (racemic) [BABA, beta-aminobutyric acid], the “Root growth repression (in words)” value (Tomato plants; seedlings treated with as low as 0.5 mM BABA) is given as “root growth repression was observed” and the “Reduction in growth of cauliflower seedlings” value (cauliflower seedlings) is given as 14.7%.
